Data reported in patent publication US9573908B2, “Broad spectrum pro-quorum-sensing molecules as inhibitors of virulence in vibrios” (priority 2012, dated 2017).

Legend:
vpsR = experiment: Transcription of the σ54-dependent gene vpsR; format: cell-based, Vibrio cholerae; settings: in the presence of compound
E. coli NtrC = biological target: T1, E. coli NtrC (Escherichia coli, UniProt P0AFB8, D54E); experiment: biochemical; settings: read-out: inhibition of ATPase activity of purified E. coli NtrC
T1 construct: His6 (N); made in house; host or cells: E. coli BL21 (DE3), strain WN2181 (pET28B-NtrC D54E)
T1 sequence (P0AFB8 1-469 D54E): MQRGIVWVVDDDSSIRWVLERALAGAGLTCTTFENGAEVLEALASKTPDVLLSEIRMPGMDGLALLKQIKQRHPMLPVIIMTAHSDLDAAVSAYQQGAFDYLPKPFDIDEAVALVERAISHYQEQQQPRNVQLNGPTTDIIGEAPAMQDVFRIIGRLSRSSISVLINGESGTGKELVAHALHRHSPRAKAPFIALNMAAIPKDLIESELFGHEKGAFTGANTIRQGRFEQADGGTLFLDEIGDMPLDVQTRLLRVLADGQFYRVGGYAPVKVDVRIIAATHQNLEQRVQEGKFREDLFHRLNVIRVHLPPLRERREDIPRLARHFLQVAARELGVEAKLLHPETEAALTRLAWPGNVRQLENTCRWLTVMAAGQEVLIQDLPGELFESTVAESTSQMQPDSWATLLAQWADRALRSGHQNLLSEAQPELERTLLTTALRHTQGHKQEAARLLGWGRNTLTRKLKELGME

[1] = system: V. parahaemolyticus luxO* mutant (LM4476); experiment: Colony opacity of V. parahaemolyticus; format: cell-based, Vibrio parahaemolyticus; settings: 500 μM in medium
[2] = system: V. cholerae ΔcqsA ΔluxS double synthase mutant; format: cell-based; settings: for induction of bioluminescence / QS activation: ΔcqsA ΔluxS double synthase mutant (wild type LuxO)
[3] = system: qrr4 expression in V. cholerae luxO^D47E strain; format: cell-based, Vibrio cholerae; settings: 50 μM compound
[4] = system: V. cholerae luxO^D47E strain; format: cell-based, Vibrio cholerae; settings: for induction of bioluminescence / QS activation: luxO^D47E mutant
LuxO D47E = LuxO D47E (Vibrio cholerae serotype O1, UniProt Q9KT84, D47E); experiment: Coupled-enzyme ATPase assay, LuxO D47E; format: biochemical; settings: for inhibition of ATP hydrolysis: FIG. 5A-C; for mode of inhibition: Lineweaver-Burk plots, parallel slopes
[5] = system: V. parahaemolyticus LM4476 (luxO*) on cultured HeLa cells; experiment: V. parahaemolyticus cytotoxicity assay on HeLa cells (LDH release); settings: 500 μM, luxO* mutant, MOI 10
[6] = system: V. parahaemolyticus luxO* strain (LM4476); format: cell-based; settings: 200 and 500 μM compound 12, Western blot
[7] = system: V. cholerae luxO^D47E strain; format: cell-based, Vibrio cholerae; settings: 0-200 μM compound 12, Western blot
LuxO D47E/I211F = LuxO D47E/I211F (Vibrio cholerae serotype O1, UniProt Q9KT84, D47E/I197F); experiment: Coupled-enzyme ATPase assay, LuxO D47E/I211F; format: biochemical; settings: 100 μM Compound 12, 2.5 mM ATP (FIG. 11)

| SMILES | change in transcription of vpsR (vpsR) | inhibition at 250 µM (E. coli NtrC) [%] | colony morphology [1] | EC50 (potency) of QS activation ([2]; dose-response curves, FIG. 2C, comparison in words) | induction of bioluminescence / QS activation [2] | decrease of GFP production from qrr4-gfp transcriptional fusion [3] [fold] | induction of bioluminescence / QS activation [4] | inhibition of ATP hydrolysis (LuxO D47E) | mode of inhibition (LuxO D47E) | average cytotoxicity (HeLa cell lysis) ([5]; 2 to 3 hours post-infection) [%] | cytotoxicity (HeLa cell lysis) ([5]; 4-hour post-infection) [%] | VopD production and secretion [6] | HapR level [7] | TcpA level [7] | enhancement in potency ([4]; EC50 from FIG. 3, tert-butyl carbinol side chain versus the series) [fold] | inhibition of ATPase activity of LuxO D47E/I211F (LuxO D47E/I211F) |
| --- | --- | --- | --- | --- | --- | --- | --- | --- | --- | --- | --- | --- | --- | --- | --- | --- |
| CC(C)COC(=O)CSc1n[nH]c(=O)[nH]c1=O [Compound 11, Isobutyl 2-((3,5-dioxo-2,3,4,5-tetrahydro-1,2,4-triazin-6-yl)thio)acetate] | did not change significantly | ~10 | switch from translucent to opaque | highest potency | activate QS | ~3 | activate QS | inhibit ATP hydrolysis in a dose-dependent manner | uncompetitive inhibitors | – | – | – | – | – | – | – |
| CC(C)(C)COC(=O)CSc1n[nH]c(=O)[nH]c1=O [Compound 12, Neopentyl 2-((3,5-dioxo-2,3,4,5-tetrahydro-1,2,4-triazin-6-yl)thio)acetate] | – | ~10 | switch from translucent to opaque | – | activate QS | – | activate QS | inhibit ATP hydrolysis in a dose-dependent manner | uncompetitive inhibitors | ~30 | ~100 | decreased production and secretion | increased | decreased | 3 | not inhibited |
